This is an account of results in patent US10556907B2 (AbbVie Inc., priority 2015, dated 2020).

What all share (assay): Method 1: intracellular Ca2+ release (FLIPR, Calcium 5) in recombinant CHO-K1 cells
Holding throughout (format): cell-based

The target of one assay is T1, human S1PR5 receptor (Homo sapiens, UniProt Q9H228).
T1 construct: host or cells: CHO-K1
Particulars: agonist potency, determined with method 1 (symbols A-D); read-out: S1P5 EC50 range. In short, it runs like this:
(§1)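 Read-out: FLIPR Tetra fluorescence of Calcium 5-loaded CHO-K1 cells (receptor + aequorin + Gq/i5) after agonist addition at RT. Values are EC50s from nonlinear fits normalized to the phospho-fingolimod reference curve. Buffer HBSS with Ca2+/Mg2+, Hepes, probenecid, 0.1% BSA, pH 7.4.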

Another assay concerns the target T2, human S1PR1 receptor (Homo sapiens, UniProt P21453).
T2 construct: host or cells: CHO-K1
Particulars: (1): determined with method 1; read-out: S1P1 EC50. In short, it runs like this:
as §1

The target in the next assay is T3, human S1PR4 receptor (Homo sapiens, UniProt O95977).
T3 construct: host or cells: CHO-K1
T3 sequence (O95977 1-384): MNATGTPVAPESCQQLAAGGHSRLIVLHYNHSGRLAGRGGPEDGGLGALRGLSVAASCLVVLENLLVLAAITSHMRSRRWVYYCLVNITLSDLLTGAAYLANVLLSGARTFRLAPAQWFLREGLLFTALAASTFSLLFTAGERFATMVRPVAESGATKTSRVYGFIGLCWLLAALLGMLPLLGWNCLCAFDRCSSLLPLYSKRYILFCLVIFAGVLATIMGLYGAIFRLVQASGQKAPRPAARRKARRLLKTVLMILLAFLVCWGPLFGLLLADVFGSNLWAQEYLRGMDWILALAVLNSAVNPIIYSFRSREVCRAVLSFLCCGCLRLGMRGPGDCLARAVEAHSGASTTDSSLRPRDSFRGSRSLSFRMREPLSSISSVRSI
To be noted: (1): determined with method 1; read-out: S1P4 EC50. In short, it runs like this: as §1

In a further assay the target is T4, human S1PR3 receptor (Homo sapiens, UniProt Q99500).
T4 construct: host or cells: CHO-K1
T4 sequence (Q99500 whole entry): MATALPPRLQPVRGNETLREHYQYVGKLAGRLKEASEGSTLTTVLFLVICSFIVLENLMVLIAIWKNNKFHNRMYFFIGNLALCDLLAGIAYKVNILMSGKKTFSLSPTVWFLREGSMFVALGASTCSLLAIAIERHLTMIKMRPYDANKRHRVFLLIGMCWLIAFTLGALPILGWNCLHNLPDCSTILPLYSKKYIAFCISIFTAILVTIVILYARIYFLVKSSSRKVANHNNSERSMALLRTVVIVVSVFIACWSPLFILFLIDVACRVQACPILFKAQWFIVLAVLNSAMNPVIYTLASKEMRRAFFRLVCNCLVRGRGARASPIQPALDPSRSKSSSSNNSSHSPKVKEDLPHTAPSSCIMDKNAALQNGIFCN
Particulars: (1): determined with method 1; read-out: S1P3 EC50. An outline of the steps: as §1

Where a name gives a salt, the structure may show the parent alone. Some results are limits rather than exact numbers.

T2 sequence (P21453 whole entry): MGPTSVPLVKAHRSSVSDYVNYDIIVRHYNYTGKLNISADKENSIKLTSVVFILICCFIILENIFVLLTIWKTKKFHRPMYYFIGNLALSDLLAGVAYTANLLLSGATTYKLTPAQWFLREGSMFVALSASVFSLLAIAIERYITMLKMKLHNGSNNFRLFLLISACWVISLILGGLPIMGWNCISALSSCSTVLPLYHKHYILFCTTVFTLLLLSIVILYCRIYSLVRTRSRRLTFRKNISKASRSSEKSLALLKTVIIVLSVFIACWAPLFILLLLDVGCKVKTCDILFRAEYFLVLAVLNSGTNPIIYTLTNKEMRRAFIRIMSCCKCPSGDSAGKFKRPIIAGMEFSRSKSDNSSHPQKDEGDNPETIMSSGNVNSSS
T1 sequence (Q9H228 whole entry): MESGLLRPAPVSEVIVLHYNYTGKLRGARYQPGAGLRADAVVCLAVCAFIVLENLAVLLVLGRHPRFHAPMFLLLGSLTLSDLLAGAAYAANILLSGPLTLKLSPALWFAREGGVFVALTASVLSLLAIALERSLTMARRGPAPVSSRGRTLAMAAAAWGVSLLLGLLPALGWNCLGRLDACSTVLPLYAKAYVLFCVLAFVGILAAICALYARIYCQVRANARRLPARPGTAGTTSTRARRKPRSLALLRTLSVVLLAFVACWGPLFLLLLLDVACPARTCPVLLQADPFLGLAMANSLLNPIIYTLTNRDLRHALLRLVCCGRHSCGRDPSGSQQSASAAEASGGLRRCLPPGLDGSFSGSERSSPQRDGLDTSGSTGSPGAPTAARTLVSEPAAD

Broadly, the EC50 is the concentration at which the effect is half-maximal. With `CC(CC(=O)O)CN1CCc2nc(C3CC(OCc4ccccc4)C3)ncc2C1` (stereo not drawn) [Compound 333, 4-(2-(3-(benzyloxy)cyclobutyl)-7,8-dihydropyrido[4,3-d]pyrimidin-6(5H)-yl)-3-methylbutanoic acid], the results for the EC50 at human S1PR5 receptor, at human S1PR1 receptor and at human S1PR4 receptor were 1000 to 10000 nM, > 1000 nM and > 1000 nM, respectively.

As for `Cc1cc(-c2ncc3c(n2)CCN(C[C@@H](C)CC(=O)O)C3)ccc1OCc1ccc(Cl)cc1` [Compound 270, (S)-4-(2-(4-((4-chlorobenzyl)oxy)-3-methylphenyl)-7,8-dihydropyrido[4,3-d]pyrimidin-6(5H)-yl)-3-methylbutanoic acid], the concentration giving a half-maximal response (EC50) was 10 to 100 nM at human S1PR5 receptor, > 1000 nM at human S1PR1 receptor and > 1000 nM at human S1PR4 receptor.

Regarding `Cc1cc(-c2ncc3c(n2)CCN(CC(C)CC(=O)O)C3)ccc1CCc1cccc(Cl)c1` (stereo not drawn) [Compound 331, 4-(2-(4-(3-chlorophenethyl)-3-methylphenyl)-7,8-dihydropyrido[4,3-d]pyrimidin-6(5H)-yl)-3-methylbutanoic acid], the concentration for a half-maximal effect (EC50) on human S1PR5 receptor was 1000 to 10000 nM; on human S1PR1 receptor, > 1000 nM; at human S1PR4 receptor it was < 1000 nM.

Regarding `Cc1cc(-c2ncc3c(n2)CCN(CC(C)CC(=O)O)C3)ccc1OCc1c(C)cccc1C` (stereo not drawn) [Compound 274, 4-[2-[4-[(2,6-dimethylphenyl)methoxy]-3-methyl-phenyl]-7,8-dihydro-5H-pyrido[4,3-d]pyrimidin-6-yl]-3-methyl-butanoic acid 2,2,2-trifluoroacetic acid salt], the EC50 on human S1PR5 receptor is 10 to 100 nM; at human S1PR1 receptor, > 1000 nM; on human S1PR4 receptor, > 1000 nM.

Consider `CCc1ccccc1COc1ccc(-c2ncc3c(n2)CCN(CC(C)CC(=O)O)C3)c(F)c1` (stereo not drawn) [Compound 296, 4-[2-[4-[(2-ethylphenyl)methoxy]-2-fluoro-phenyl]-7,8-dihydro-5H-pyrido[4,3-d]pyrimidin-6-yl]-3-methyl-butanoic acid 2,2,2-trifluoroacetic acid salt], for which the EC50 on human S1PR5 receptor was 100 to 1000 nM; on human S1PR1 receptor, > 1000 nM; on human S1PR4 receptor, > 1000 nM.

Take `CC(CC(=O)O)CN1CCc2nc(-c3ccc(C4CC4c4ccc(Cl)cc4)cc3)ncc2C1` (stereo not drawn) [Compound 323, 4-(2-(4-(2-(4-chlorophenyl)cyclopropyl)phenyl)-7,8-dihydropyrido[4,3-d]pyrimidin-6(5H)-yl)-3-methylbutanoic acid]: the EC50 at human S1PR5 receptor was 1000 to 10000 nM; on human S1PR1 receptor, > 1000 nM; on human S1PR4 receptor, > 1000 nM.

For `Cc1cc(-c2ncc3c(n2)CCN(C[C@H](C)CC(=O)O)C3)ccc1OCc1ccc(Cl)cc1` [Compound 318, (R)-4-(2-(4-((4-chlorobenzyl)oxy)-3-methylphenyl)-7,8-dihydropyrido[4,3-d]pyrimidin-6(5H)-yl)-3-methylbutanoic acid], the values for the EC50 at human S1PR5 receptor, at human S1PR1 receptor and at human S1PR4 receptor were 100 to 1000 nM, > 1000 nM and > 1000 nM, respectively.

In the case of `Cc1cc(-c2ncc3c(n2)CCN(CC(C)CC(=O)O)C3)ccc1CCc1ccc(Cl)cc1` (stereo not drawn) [Compound 291, 4-(2-(4-(4-chlorophenethyl)-3-methylphenyl)-7,8-dihydropyrido[4,3-d]pyrimidin-6(5H)-yl)-3-methylbutanoic acid], the figures for the EC50 at human S1PR5 receptor, on human S1PR1 receptor and on human S1PR4 receptor were 100 to 1000 nM, > 1000 nM and > 1000 nM, respectively.

Regarding `C[C@H](CC(=O)O)C(=O)N1CCc2nc(-c3ccc(OCc4ccc(Cl)cc4)cc3)ncc2C1` [Compound 332, (R)-4-(2-(4-((4-chlorobenzyl)oxy)phenyl)-7,8-dihydropyrido[4,3-d]pyrimidin-6(5H)-yl)-3-methyl-4-oxobutanoic acid], the concentration giving a half-maximal response (EC50) on human S1PR5 receptor is 1000 to 10000 nM; on human S1PR1 receptor it was > 1000 nM; on human S1PR4 receptor, > 1000 nM.

In the case of `CCc1ccccc1COc1ccc(-c2ncc3c(n2)CCN(CC(C)CC(=O)O)C3)cc1C` (stereo not drawn) [Compound 308, 4-[2-[4-[(2-ethylphenyl)methoxy]-3-methyl-phenyl]-7,8-dihydro-5H-pyrido[4,3-d]pyrimidin-6-yl]-3-methyl-butanoic acid 2,2,2-trifluoroacetic acid salt], the values for the EC50 at human S1PR5 receptor, on human S1PR1 receptor and on human S1PR4 receptor were 100 to 1000 nM, > 1000 nM and < 1000 nM, respectively.

In the case of `CC(CC(=O)O)CN1CCc2nc(-c3ccc(C4CC4c4cccc(Cl)c4)cc3)ncc2C1` (stereo not drawn) [Compound 293, 4-(2-(4-(2-(3-chlorophenyl)cyclopropyl)phenyl)-7,8-dihydropyrido[4,3-d]pyrimidin-6(5H)-yl)-3-methylbutanoic acid], the half-maximal effective concentration (EC50) is 100 to 1000 nM at human S1PR5 receptor, > 1000 nM at human S1PR1 receptor and > 1000 nM on human S1PR4 receptor.

For the molecule `CC(C)(CC(=O)O)CN1CCc2nc(-c3ccc(OCc4ccc(Cl)c(Cl)c4)cc3)ncc2C1` [Compound 217, 4-(2-(4-((3,4-dichlorobenzyl)oxy)phenyl)-7,8-dihydropyrido[4,3-d]pyrimidin-6(5H)-yl)-3,3-dimethylbutanoic acid], the values for the EC50 on human S1PR5 receptor, at human S1PR1 receptor and at human S1PR4 receptor were 100 to 1000 nM, > 1000 nM and > 1000 nM, respectively.

On to `Cc1cc(C)cc(COc2ccc(-c3ncc4c(n3)CCN(CC(C)CC(=O)O)C4)c(F)c2)c1` (stereo not drawn) [Compound 313, 4-[2-[4-[(3,5-dimethylphenyl)methoxy]-2-fluoro-phenyl]-7,8-dihydro-5H-pyrido[4,3-d]pyrimidin-6-yl]-3-methyl-butanoic acid 2,2,2-trifluoroacetic acid salt], for which the EC50 is 100 to 1000 nM on human S1PR5 receptor, > 1000 nM at human S1PR1 receptor and > 1000 nM on human S1PR4 receptor.

On to `CC(CC(=O)O)CN1CCc2nc(-c3ccc(CCc4ccc(Cl)cc4)cc3F)ncc2C1` (stereo not drawn) [Compound 255, 4-(2-(4-(4-chlorophenethyl)-2-fluorophenyl)-7,8-dihydropyrido[4,3-d]pyrimidin-6(5H)-yl)-3-methylbutanoic acid], for which the concentration for a half-maximal effect (EC50) at human S1PR5 receptor was < 10 nM; on human S1PR1 receptor, > 1000 nM; at human S1PR4 receptor it was > 1000 nM.

`O=C(O)CCCN1CCc2nc(-c3ccc(OCc4cccc(F)c4)cc3)ccc2C1` [Compound 116, 4-(2-(4-((3-fluorobenzyl)oxy)phenyl)-7,8-dihydro-1,6-naphthyridin-6(5H)-yl)butanoic acid]: the values for the EC50 on human S1PR3 receptor, at human S1PR5 receptor and at human S1PR1 receptor were > 1000 nM, < 10 nM and > 1000 nM, respectively.

On to `O=C(O)CCN1CCc2nc(-c3ccc(OCc4ccc(F)c(F)c4)cc3)c(F)cc2C1` [Compound 198, 3-(2-(4-((3,4-difluorobenzyl)oxy)phenyl)-3-fluoro-7,8-dihydro-1,6-naphthyridin-6(5H)-yl)propanoic acid], for which the 50% effective concentration (EC50) on human S1PR3 receptor was > 1000 nM; at human S1PR5 receptor, < 10 nM; at human S1PR1 receptor, < 1000 nM.

Turning to `O=C(O)CCCN1CCc2nc(-c3ccc(OCc4ccccc4)cc3)ccc2C1` [Compound 115, 4-(2-(4-(benzyloxy)phenyl)-7,8-dihydro-1,6-naphthyridin-6(5H)-yl)butanoic acid], the EC50 on human S1PR3 receptor was > 1000 nM; on human S1PR5 receptor, < 10 nM; on human S1PR1 receptor, > 1000 nM.

Regarding `O=C(O)CCN1CCc2nc(-c3ccc(OCc4cccc(C(F)F)c4)cc3)ncc2C1` [Compound 76, 3-(2-(4-((3-difluoromethylbenzyl)oxy)phenyl)-7,8-dihydropyrido[4,3-d]pyrimidin-6(5H)-yl)propanoic acid], the values for the EC50 on human S1PR3 receptor, at human S1PR5 receptor and at human S1PR1 receptor were > 1000 nM, < 10 nM and > 1000 nM, respectively.
